Values after ≈ are worked out from the molar mass of the structure shown. Active and inactive are the calls of the source. The calls are words filed in the database; no cut-off is given here.

The subject of test [1] is Staphylococcus aureus. The test is described as follows: Antibacterial activity against methicillin-resistant Staphylococcus aureus ATCC 33591 after 18 hrs by dilution method. It counts as functional. The following applies: ATCC 33591, 18 h.
The subject of test [2] is Staphylococcus aureus. The test can be described thus: Bacteriostatic activity against methicillin-resistant Staphylococcus aureus ATCC 33591 by LB plate method. It counts as functional.

As a reminder, the MIC is the least concentration at which growth counts as inhibited. A higher MIC goes with a need for much substance. The molecule `CC(=O)O[C@H]1C(=O)O[C@H](C[C@@]2(C)[C@@H]3CCCC(C)(C)C3=CC[C@@H]2C)[C@]1(O)CCl` yielded an MIC in test [1] of 40 µg/mL (≈ 96.9 µM). For the same molecule, the outcome in test [2] was Active.
In the case of `CC(=O)O[C@H](C[C@@]1(C)[C@@H]2CCCC(C)(C)C2=CC[C@@H]1C)[C@@]1(O)COC(=O)[C@@H]1O`, the MIC in test [1] was over 200 µg/mL.

These data come from ChEMBL document CHEMBL4002559, “Micromonohalimanes A and B: Antibacterial Halimane-Type Diterpenoids from a Marine Micromonospora Species” (2016).
